From US3998963A, “Tertiary butyl substituted carbamoyl oxime pesticides” (priority 1975, dated 1976)
Converted amounts (≈) assume the structure as drawn. Like-named read-outs stand apart in the source and are kept apart here.

Columns and labels:
Assay type in all cases: in vivo
[1] = tested on: two-spotted mite (Tetranychus urticae Koch); experiment: Mite Foliage Spray Test; conditions: foliar, 144 h, 6 days, read-out: Insect LD50, Mite
Description: (§1) Suspensions of the test compouns were prepared by dissolving one gram of compound in 50 milliliters of acetone in which had been dissolved 0.1 gram (10 percent of the weight of compound) of an alkylphenoxy polyethoxyethanol surfactant, as an emulsifying or dispersing agent. The resulting solution was mixed into 150 milliliters of water to give roughly 200 milliliters of a suspension containing the compound in finely divided form. The thus-prepared stock suspension contained 0.5 percent by weight of compound. The test concentrations in parts per million by weight employed in the tests described hereinbelow were obtained by appropriate dilutions of the stock suspension with water. The test procedures were as follows:
Adults and nymphal stage of the two-spotted mite (Tetranychus urticae Koch), reared on Tendergreen bean plants at 80±5 per cent relative humidity, were the test organisms. Infested leaves from a stock culture were placed on the primary leaves of two bean plants 6 to 8 inches in height, growing in a 21/2 inch clay pot. 150-200 Mites, a sufficient number for testing, transferred from the excised leaves to the fresh plants in a period of twenty four hours. Following the twenty four hour transfer period, the excised leaves were removed from the infested plants. The test compounds were formulated by diluting the stock suspension with water to give a suspension containing 500 parts of test compound per million parts of final formulation. The potted plants (one pot per compound) were placed on a revolving turntable and sprayed with 100-110 milliliters of test compound formulation by use of a DeVilbiss spray gun set at 40 psig. air pressure. This application, which lasted 25 seconds, was sufficient to wet the plants to run-off. As a control, 100-110 milliliters of a water solution containing acetone and emulsifier in the same concentrations as the test compound formulation, but containing no test compound, were also sprayed on infested plants. The sprayed plants were held at 80±5 per cent relative humidity for 6 days, after which a mortality count of motile forms was made. Microscopic examination for motile forms was made on the leaves of the test plants. Any individual which was capable of locomotion upon prodding was considered living.

[2] = tested on: Mexican bean beetle (Epilachna varivestis, Muls.); experiment: Mexican Bean Beetle Leaf Spray Test; conditions: 72 h, 3 days, read-out: Insect LD50, Beetle
Description: as §1
Mexican Bean Beetle Leaf Spray Test
Fourth instar lavae of the Mexican bean beetle (Epilachna varivestis, Muls.), reared on Tendergreen bean plants at a temperature of 80°±5° F. and 50±5 per cent relative humidity, were the test insects.
The test compounds were formulated by diluting the stock suspension with water to give a suspension containing 500 parts of test compound per million parts of final formulation. Potted Tendergreen bean plants of standard height and age were placed on a revolving turntable and sprayed with 100-110 milliliters of test comound formulation by use of a DeVilbiss spray gun set at 10 psig air pressure. This application, which lasted 25 seconds, was sufficient to wet plants to run-off. As a control, 100-110 milliliters of a water-acetone-emulsifier solution containing no test compound were also sprayed on infested plants. When dry, the paired leaves were separated and each was placed in a 9 centimeter Petri dish lined with moistened filter paper. Five randomly selected larvae were introduced into each dish, and the dishes were closed. The closed dishes were labeled and held at a temperature of 80°±5° F, for 3 days. Although the larvae could easily consume the leaf within 24 to 48 hours, no more food was added. Larvae which were unable to move the length of the body, even upon stimulation, were considered dead.

[3] = tested on: houseflies (Musca domestica, L.); experiment: Fly Immersion Test; conditions: for LC50: Musca domestica, immersion (contact), 24 hours, read-out: Imm LD50, Housefly; for contact vs stomach poison, house fly (in words): immersion vs bait; for (Imm/Bait), Housefly: ratio immersion/bait LD50
Description: as §1
The test organisms used were 4 to 6 day old adult houseflies (Musca domestica, L.) reared under controlled conditions of 80° + 5° F. and 50 + 5 percent relative humidity. The adult flies were immobilized by anesthetizing with CO2. Twenty-five immobilized individuals (males and females) were then used for the test of each test compound.
Twenty-five randomly selected adult flies were thoroughly wetted in a formulated mixture of the test chemical (50 ml) by pouring the insects and formulation from one beaker to another six times. Excess liquid was removed by transferring the insects into a standard food strainer (5-inch diameter) which was then blotted with a paper towel. The treated flies were transferred to clean food strainer which was inverted over a paper cup containing a wad of cotton saturated with a 10 percent aqueous sugar solution provided as food for surviving insects. An equivalent amount of a water solution containing acetone and emulsifier in the same concentrations as the insecticidal mixture but without the candidate insecticide was applied to other flies in the same manner. These insects serve as controls for the experiment.
The surviving caged flies were allowed to feed on the sugar water for a period of 24 hours. Room temperature and humidity are 80° + 5° F. and 50 + 5 percent relative humidity, respectively. At the end of the holding period flies which show no sign of movement upon stimulation were considered dead.
(§2) In Table 1 are presented insect and rat toxicity data (bait tests) on a comparative basis of the compounds described above. […] Rat toxicity is also more meaningfully compared on the basis of molar weight LD50 values. The relative efficacy of the parent compounds as compared to the previously known derivatives and as compared to the new compounds of this invention is also shown in Table 1. The ratio of efficacy as contact poisons (immersion/bait) of the compounds tested against Armyworm and House Fly is presented in Table 2 along with the results of the phytotoxicity tests of the compounds on bean, corn, tomato and cotton.

cotton = experiment: Phytotoxicity Test, cotton; conditions: for Phytotoxicity, Cotton: 2500 parts per million, ten days; for phytotoxicity to cotton (in words): text statement
Description: as §1
Experiments were also conducted to determine the phytotoxicity of representative compositions with respect to healthy fresh plants. Solutions of the compounds were prepared as described above to provide a concentration of 2500 parts per million of the test compound. The test plants were sprayed in accordance with the procedure described above for the Mite Foliage Spray Test so as to deliver approximately 100 milliliters of test solution to the leaves of each plant tested. The sprayed plants and controls were set aside for approximately one hour to allow the foliage to dry and were then placed in the greenhouse. After ten days the plants were visually inspected to determine the extent of foliage injury. A rating of 1 indicates no perceptible injury; 5 indicates the plant was dead and ratings of 2, 3 and 4 indicate intermediate degrees of injury based upon the number and extent to which leaves were injured.

[4] = Mammalian Toxicity (peroral, rat); conditions: rat, in vivo, po, peroral
Description: (§3) These compositions were also evaluated to determine their peroral toxicity to mammals by conventional methods. The animal selected for this experiment was the rat. The test results obtained are expressed in terms of the number of milligrams of composition per kilogram of weight of the animal required to achieve a mortality rate of 50 percent (LD50).
as §2

rat = experiment: Mammalian Toxicity (peroral, rat); conditions: for (b) relative value of derivative vs parent compound, Rat LD50: peroral, formula of footnote b is drawing 8; for mammalian toxicity (in words): text statement
Description: as §3, §2

[5] = Table II, read-out: Rat Tox. LD50
[6] = molar weight LD50, Table I, read-out: Rat LD50/mole wt. [a]

SMILES | LC50 [1] | LC50 [2] | LC50 [3] | contact vs stomach poison, house fly (in words) [3] | (Imm/Bait), Housefly [3] | Phytotoxicity, Cotton (cotton) | phytotoxicity to cotton (in words) (cotton) | LD50 ([4]; Table I, read-out: Rat LD50) | LD50 [4, 5] | LD50 ([4]; read-out: rat LD50 (molar)) | LD50 [4, 6] | (b) relative value of derivative vs parent compound, Rat LD50 (rat) | more toxic to mammals than the parent compound (rat; molar LD50 comparison, vs compound 1) | mammalian toxicity (in words) (rat) | safety relative to the parent (molar) (rat; vs parent compound, molar basis) | less toxic to mammals than its parent compound, weight basis (rat; vs parent compound, weight basis) | mammalian toxicity (in words) (rat; listed as O-[ N-methyl-N-[4-(t-butylphenyl) sulfenyl] carbamoyl] S-isopropyl thiolacetohyd)
CNC(=O)ON=C(C)SC [Compound 1, O-(methylcarbamoyl) S-methyl acetothiolhydroximate] | 500 µg/mL (≈ 3080 µM) | 70 µg/mL (≈ 432 µM) | 32 µg/mL (≈ 197 µM) | significantly more toxic as stomach poisons than as contact poisons | 8 | *Bu 3 | so great as to significantly curtail the use of this otherwise highly desirable pesticide on cotton | 48.5 mg/kg | 48.5 mg/kg | 330 µmol/kg | – | – | – | – | – | – | –
CNC(=O)ON=C(C)SC(C)C [Compound 2] | 450 µg/mL (≈ 2370 µM) | 30 µg/mL (≈ 158 µM) | 66 µg/mL (≈ 347 µM) | significantly more toxic as stomach poisons than as contact poisons | 6 | Bu 2 | – | 7.7 mg/kg | 7.7 mg/kg | – | 40 µmol/kg | – | – | – | – | – | –
CCSC(C)=NOC(=O)NC [Compound 3] | 250 µg/mL (≈ 1420 µM) | 38 µg/mL (≈ 216 µM) | – | – | – | 2 | – | – | 17.7 mg/kg | – | – | – | – | – | – | – | –
CSC(C)=NOC(=O)N(C)Sc1ccc(Cl)cc1 [Compound 4] | 500 µg/mL (≈ 1640 µM) | 70 µg/mL (≈ 230 µM) | 24 µg/mL (≈ 78.7 µM) | – | 3 | *Bu 3 | – | 65 mg/kg | 65 mg/kg | – | 210 µmol/kg | 1.43 | – | – | – | – | –
CC(=NOC(=O)N(C)Sc1ccc(Cl)cc1)SC(C)C [Compound 5] | 58 µg/mL (≈ 174 µM) | 50 µg/mL (≈ 150 µM) | 25 µg/mL (≈ 75.1 µM) | – | 0.5 | Bu 2 | – | 16.2 mg/kg | 16.2 mg/kg | – | 48 µmol/kg | 0.83 | – | – | – | – | –
CSC(C)=NOC(=O)N(C)Sc1ccc(C)cc1 [Compound 6] | 95 µg/mL (≈ 334 µM) | 15 µg/mL (≈ 52.7 µM) | 14 µg/mL (≈ 49.2 µM) | – | 7 | Bu 2 | – | 56.6 mg/kg | 56.6 mg/kg | 200 µmol/kg | – | 1.5 | at least 50% | – | – | – | –
CC(=NOC(=O)N(C)Sc1ccc(C)cc1)SC(C)C [Compound 7] | 42 µg/mL (≈ 134 µM) | 15 µg/mL (≈ 48 µM) | 25 µg/mL (≈ 80 µM) | – | 0.5 | – | – | 18.7 mg/kg | 16.2 mg/kg | – | 60 µmol/kg | 0.67 | – | – | – | – | –
CSC(C)=NOC(=O)N(C)Sc1ccc(C(C)(C)C)cc1 [Compound 8, O-[N-Methyl-N-[4-(t-butylphenyl)sulfenyl]carbamoyl] S-Methyl Acetothiolhydroximate] | 380 µg/mL (≈ 1160 µM) | 20 µg/mL (≈ 61.3 µM) | 14 µg/mL (≈ 42.9 µM) | outstanding contact poison | 0.8 | Bu 2 | moderate leaf burn injury | 196 mg/kg | 196 mg/kg | 600 µmol/kg | – | 0.5 | – | extremely low mammalian toxicity | about twice as safe as the parent | at least 4 times | –
CC(=NOC(=O)N(C)Sc1ccc(C(C)(C)C)cc1)SC(C)C [Compound 9, O-[N-Methyl-N-[4-(t-Butylphenyl)sulfenyl]carbamoyl] S-Isopropyl Thiolacetohydroximate] | 42 µg/mL (≈ 118 µM) | 30 µg/mL (≈ 84.6 µM) | 10 µg/mL (≈ 28.2 µM) | – | 0.2 | – | – | 71.3 mg/kg | 71.3 mg/kg | – | 200 µmol/kg | 0.2 | – | substantial reduction in mammalian toxicity | – | – | very low level of mammalian toxicity
